Experimental data: the supplement of paper PMC8671470

What was measured:
Settings in all cases: 72 h
KCL-22 [1] = system: KCL-22
Method in brief: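 In 384-well plates holding acoustically pre-printed compounds at five tenfold doses from 1 to 10,000 nM, in duplicate, fifteen myeloid leukaemia cell lines were grown in RPMI 1640 for 72 h at 37 °C with 5% CO2. Luminescent ATP viability was scaled between vehicle and a positive control at 10 µM. The IC50 was then taken from log-logistic dose–response fits with four parameters.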

HL-60 [2] = test: cell viability (% survival relative to DMSO control); higher = less cytotoxic
Method in brief: (§1)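 In 384-well plates, the full library was rescreened in duplicate on HL-60 cells in RPMI 1640 with 10% FBS, at 1–10,000 nM in five tenfold concentrations, for 72 h at 37 °C, 5% CO2. Each run also held DMSO or 100 nM of one of three metabolic inhibitors. Viability was measured by CellTiter-Glo and normalised to DMSO wells and to wells with proteasome inhibitor, present at 10 μM. Any area under the curve comes from four-parameter log-logistic fitting with drc and PharmacoGx.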

BV-173 = test: cell viability (% survival relative to DMSO control, bortezomib = 0%); higher = less cytotoxic
Method in brief: (§2)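 Reported values are percent survival from duplicate wells, averaged. Fifteen myeloid leukaemia cell lines were treated in 384-well plates with compounds at 1, 10, 100, 1000 or 10000 nM for 72 h at 37 °C in 5% CO2. Signals from CellTiter-Glo luminescence were scaled with vehicle as 100% and a 10 µM positive control as 0%.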

HEL = test: as above
Method in brief: as §2

HL-60 [3] = test: as above
Method in brief: as §2

K-562 = test: as above
Method in brief: as §2

KCL-22 [4] = test: as above
Method in brief: as §2

KG-1 = test: as above
Method in brief: as §2

KU-812 = test: as above
Method in brief: as §2

LAMA-84 = test: as above
Method in brief: as §2

ML-2 = test: as above
Method in brief: as §2

MOLM-13 = test: as above
Method in brief: as §2

MV4-11 = test: as above
Method in brief: as §2

Mono-Mac-6 = test: as above
Method in brief: as §2

NOMO-1 = test: as above
Method in brief: as §2

SHI-1 = test: as above
Method in brief: as §2

THP-1 = test: as above
Method in brief: as §2

HL-60 [5] = test: area under dose-response curve (viability, 1 nM-10 uM) (fraction (0-1)); higher = more sensitive
Method in brief: as §1

COc1ccc(CNC(=O)Nc2ncc([N+](=O)[O-])s2)cc1
Settings	IC50 (cell viability) [µM]
KCL-22 [1]	> 10

cell viability [%], HL-60 [2]
Settings	0.001 µM	0.01 µM	0.1 µM	1 µM	10 µM
co-treatment: AZD3965 100 nM	99.1	97.6	102	91.4	95.2
co-treatment: DMSO vehicle	103	94.7	99.35	102	107
co-treatment: GSK2194069 100 nM	89.7	81	106	86.5	116
co-treatment: pictilisib 100 nM	84	103	106	96.3	105

Settings	area under dose-response curve, co-treatment: AZD3965 100 nM	area under dose-response curve, co-treatment: DMSO vehicle	area under dose-response curve, co-treatment: GSK2194069 100 nM	area under dose-response curve, co-treatment: pictilisib 100 nM	cell viability, 1 nM [%]	cell viability, 10 nM [%]	cell viability, 100 nM [%]	cell viability, 1000 nM [%]	cell viability, 10000 nM [%]
BV-173	–	–	–	–	91.7	100	101	97.7	92.7
HEL	–	–	–	–	111	98	113	108	109
HL-60 [3]	–	–	–	–	108	101	115	95.6	104
HL-60 [5]	< 0.0301	< 0.0301	< 0.0301	< 0.0301	–	–	–	–	–
K-562	–	–	–	–	85.6	103	108	89.4	97.7
KCL-22 [4]	–	–	–	–	106	97.7	104	102	79.7
KG-1	–	–	–	–	90.5	146	93.8	94.8	173
KU-812	–	–	–	–	97.8	107	92.1	96.7	122
LAMA-84	–	–	–	–	109	105	110	104	108
ML-2	–	–	–	–	91.8	101	107	105	104
MOLM-13	–	–	–	–	99.8	108	97.8	102	105
MV4-11	–	–	–	–	101	99.1	108	94.7	90.6
Mono-Mac-6	–	–	–	–	96	98	96.7	91.3	70.2
NOMO-1	–	–	–	–	108	97.1	97.9	106	99.5
SHI-1	–	–	–	–	105	101	103	106	89.8
THP-1	–	–	–	–	101	101	104	105	99.1

CC(C)(C#N)c1cc(Cn2cncn2)cc(C(C)(C)C#N)c1 [Anastrozole]
Settings	IC50 (cell viability) [µM]
KCL-22 [1]	> 10

cell viability [%], HL-60 [2]
Settings	0.001 µM	0.01 µM	0.1 µM	1 µM	10 µM
co-treatment: AZD3965 100 nM	97.5	101.3	102	102	100
co-treatment: DMSO vehicle	101	100	101	101.7	102
co-treatment: GSK2194069 100 nM	96.7	94.4	120	102	100
co-treatment: pictilisib 100 nM	104	92.3	106	108	101

Settings	area under dose-response curve, co-treatment: AZD3965 100 nM	area under dose-response curve, co-treatment: DMSO vehicle	area under dose-response curve, co-treatment: GSK2194069 100 nM	area under dose-response curve, co-treatment: pictilisib 100 nM	cell viability, 1 nM [%]	cell viability, 10 nM [%]	cell viability, 100 nM [%]	cell viability, 1000 nM [%]	cell viability, 10000 nM [%]
BV-173	–	–	–	–	104	89.4	104	95.9	104
HEL	–	–	–	–	92.8	96.5	105	97.1	105
HL-60 [3]	–	–	–	–	103	99.7	89.3	93.8	91.6
HL-60 [5]	< 0.0301	< 0.0301	< 0.0301	< 0.0301	–	–	–	–	–
K-562	–	–	–	–	109	95.3	106	93.2	92.1
KCL-22 [4]	–	–	–	–	102	91.6	111	91.7	102
KG-1	–	–	–	–	98.4	97.2	103	92	93.8
KU-812	–	–	–	–	86.1	90.6	100	90.5	90
LAMA-84	–	–	–	–	93.5	97.6	96.3	99.9	97.7
ML-2	–	–	–	–	106	100	106	90.5	93
MOLM-13	–	–	–	–	97.4	90.8	88.2	104	103
MV4-11	–	–	–	–	116	99.4	92.9	87.8	96.4
Mono-Mac-6	–	–	–	–	103	102	111	102	89.7
NOMO-1	–	–	–	–	90.6	103	96.4	99.6	102
SHI-1	–	–	–	–	108	94.5	102	101	103
THP-1	–	–	–	–	102	93.4	99.8	99.9	96.3
